The source of these data is US5538993A, “Certain tetrahydrocannabinol-7-oic acid derivatives” (priority 1991, dated 1996).

The subject of data set [1] is Picrotoxin induced lethality. Description: Protection against picrotoxin induced lethality. Format: in vivo, Balb/c male mice. To be noted: mice; result in words. Here is the method:
(§1) The present compounds are active in several tests generally used to indicate neuroprotection.
(§2) Balb/c male mice were administered with the drug 90 min before treatment with NMDA (125 mq/kg) or 120 min before picrotoxin (8 mg/kg) in emulsion, s.c. The survival rate shown in Table VI indicates number of survivors out of total number of animals used.

Another data set in a line: Solubility. Type of data set: physicochemical. To be noted: result in words.
The subject of a further data set is intraocular pressure. Description: Reduction of intraocular pressure (anti-glaucoma). Format: in vivo, rabbits. To be noted: 50 μl drop of a 1% emulsion into rabbit eye. As for the experimental part: Reduction of intraocular pressure in rabbits was determined by the addition of a 50 μl drop of a 1% emulsion of the cannabinoid into the rabbit eye. This test is a measure of anti-glaucoma activity.

Another data set has as its system mouse hot plate test. Description: Hot plate test for antinociception (55° C.). Format: in vivo. To be noted: 0.02 mg/kg oral, 90 min before test. Here is the method:
In the hot plate test for analgesia an aluminum surface was maintained at 55±1° C. by circulating water through passages in the metal. A clear plastic cylinder 18 cm in diameter and 26 cm high was placed on the surface to prevent escape. The end point was taken when the mouse either performed a hind paw lick or jumped off the surface; in no case were the animals kept for more than 30 secs on the plate. Mice were never used more than one time; control values were always measured at 11 a.m. and test values at 2 p.m. The drugs were administered orally 90 min before the hot plate test. The percent change in response time (latency) was calculated by comparing the mean of the control values with the mean of the test values and statistical signficance determined by a paired tetest analysis using software (Statview, 512) from Brainpower, Inc., Calabasas, Calif.
(Hot-plate and tail-flick tests time the reaction to a heat stimulus.)

For the next data set, the system named is forebrain ischemia. Briefly: Protection against forebrain ischemia (unilateral occlusion). Type of data set: in vivo. To be noted: mongolian gerbils, result in words.
From the text: as §1

The subject of data set [2] is N-methyl-D-aspartate (NMDA) induced lethality. Description: Protection against NMDA induced lethality. Format: in vivo, Balb/c male mice. To be noted: mice; result in words. Here is the method:
as §1, §2

Another data set relates to NMDA receptor. Description: NMDA-blocking response in Xenopus oocytes injected with rat brain RNA. Format: cell-based. To be noted: upon return to ND 96 solution. The source says:
The oocyte is the most widely used system for studying the molecular, biophysical. and pharmacological properties of expressed voltage- or transmitter-operated ion channels. This giant cell offers several advantages for this type of studies. It can be readily used for two-electrode voltage clamp studies, translates injected mRNA from different sources and functionally expresses the translated proteins, and it is also readily amenable for intracellular microinjections. Importantly, the recordings of transmitter or voltage-induced currents in a single oocyte are extremely stable and can be done, without rundown, for 2-3 hours; this allows the performance of a full dose-response relation in single oocytes.
Neuronal receptors for excitatory amino acid (EAA) are becoming increasingly important for the understanding of normal and pathological brain function. Quantitative pharmacological studies of EAA receptor/ion channel. complex are difficult to study in neurons. Therefore, Xenopus oocyte injected with brain MRNA is now the preparation of choice.
The response to N-methyl-D-aspartate (NMDA) in oocytes injected with rat brain mRNA was characterized and the effects of HU-245 were studied.
Female Xenopus were anesthetized by immersion in water containing 0.15% tricaine methanesulfonate and a small incision was made in the lower abdomen. Ovary fragments were removed into ND-96. […]

A further data set deals with cataleptic response. Description: Cataleptic effects, ring test. Type of data set: in vivo, mouse. To be noted: 5 min test period, ± SD. Here is the method: The lack of CNS activity for the compounds described herein may be seen from the data shown in Table V. This was measured by the so-called "ring test" [Pertwee, R. G., et al., J. Pharmacol., 46, 753 (1972)] in which the cataleptic effects of cannabinoids can be quantitated. The compounds produced little or no response when compared with the parent drug.
The cataleptic response was measured using the ring test. Mice were placed on a horizontal wire ring 5.5 cm in diameter, which was attached to a 16 cm vertical rod. The hind paws and fore paws were placed at opposite sides of the ring. It is important that the ambient temperature is maintained at 30° C. and that the environment be free of auditory stimuli and bright lights. The criteria for immobility are detailed by Pertwee. The response is calculated as the fraction of time the mouse is immobile over a 5 min. test period. Measurements were always done between 2 and 4 p.m. and the animals were used only once.

In another data set the test system is peritoneal leukocytes. Description: Leukocyte adhesion assay (peritoneal cells after oral dosing). Type of data set: in vivo, female CD-1 mice. To be noted: cells collected 90 min after dosing; for number of adhering cells: ± S.D. Here is the method: Leukocytes are thought to be major contributors to the inflammatory response and their ability in this regard is reflected by their adhesiveness to a variety of substrates [Audette, C. A., et al., ibid.] Sci., 47, 753 (1990)].
The details of the leukocytes adhesion assay have been previously reported [Audette et al., ibid.]. In brief, peritoneal cells from female CD-1 mice (20-25 g) were collected at 90 min following oral administration of the drug or vehicle (50 μl peanut oil). Cells from each treatment group (N=3) were pooled and equal numbers aliquoted into six culture dish wells (1.9 cm^2 area). After incubation for 18-20 hours, non-adhering cells were removed and the remaining cell monolayer quantitated by DNA measurement.

Data set [3] deals with strychnine induced lethality. Briefly: Protection against strychnine induced lethality. Type of data set: in vivo. To be noted: rats; result in words.
From the text: as §1

The structures appear in SMILES notation.

On to `CCCCCCC(C)(C)c1cc(OC(C)=O)c2c(c1)OC(C)(C)[C@H]1CC=C(C(=O)O)C[C@H]21` [HU-245, (3S, 4S) -THC-DMH-7-oic acid, acetate], for which the “blocking of picrotoxin induced lethality” value in [1] is given as “blocker”. Further, in the data set “Solubility”, the “solubility compared with prior art compounds” value is recorded as “higher than that of prior art compounds”. Besides, the “reduction of intraocular pressure” value in the data set on intraocular pressure is “Significant reduction”. Besides, the “percent change in latency” value with mouse hot plate test was determined as 10.7%. Besides, the “protection against forebrain ischemia” value in the data set on forebrain ischemia is reported as “shown to protect against forebrain ischemia”. For the same compound, in data set [2], the “blocking of NMDA induced lethality” value is “blocker”. Further, the “reversibility of effect on NMDA response” value with NMDA receptor is recorded as “reversible”. Besides, the “cataleptic response (fraction of time immobile)” value with cataleptic response (0.5 mg/kg) turned out to be 6.8 ± 2.4; in the data set on cataleptic response (1.0 mg/kg), 12.0 ± 6.0. Further, the “adhering cells, percent of control” value with peritoneal leukocytes (0.10 mg/kg oral) is reported as 124% of control. Also, the “number of adhering cells” value is 0.66 ± 0.08 number of adhering cells × 10^-6 with peritoneal leukocytes (0.10 mg/kg oral), 0.85 ± 0.08 number of adhering cells × 10^-6 in the data set with peritoneal leukocytes (0.50 mg/kg oral) and 0.30 ± 0.04 number of adhering cells × 10^-6 with peritoneal leukocytes (1.00 mg/kg oral). Also, the “protection against strychnine induced lethality” value in [3] was “protects against strychnine induced lethality”.
